The record followed here is patent publication US20260159520A1, “HETEROBIFUNCTIONAL COMPOUNDS AND METHODS OF TREATING DISEASE” (Halda Therapeutics OpCo, Inc., priority 2022, published 2026).

The target of one assay is T1, androgen receptor (Homo sapiens, UniProt P10275).
T1 construct: endogenous in cells; host or cells: unnamed cells (cytosol fraction)
T1 sequence (P10275 1-920): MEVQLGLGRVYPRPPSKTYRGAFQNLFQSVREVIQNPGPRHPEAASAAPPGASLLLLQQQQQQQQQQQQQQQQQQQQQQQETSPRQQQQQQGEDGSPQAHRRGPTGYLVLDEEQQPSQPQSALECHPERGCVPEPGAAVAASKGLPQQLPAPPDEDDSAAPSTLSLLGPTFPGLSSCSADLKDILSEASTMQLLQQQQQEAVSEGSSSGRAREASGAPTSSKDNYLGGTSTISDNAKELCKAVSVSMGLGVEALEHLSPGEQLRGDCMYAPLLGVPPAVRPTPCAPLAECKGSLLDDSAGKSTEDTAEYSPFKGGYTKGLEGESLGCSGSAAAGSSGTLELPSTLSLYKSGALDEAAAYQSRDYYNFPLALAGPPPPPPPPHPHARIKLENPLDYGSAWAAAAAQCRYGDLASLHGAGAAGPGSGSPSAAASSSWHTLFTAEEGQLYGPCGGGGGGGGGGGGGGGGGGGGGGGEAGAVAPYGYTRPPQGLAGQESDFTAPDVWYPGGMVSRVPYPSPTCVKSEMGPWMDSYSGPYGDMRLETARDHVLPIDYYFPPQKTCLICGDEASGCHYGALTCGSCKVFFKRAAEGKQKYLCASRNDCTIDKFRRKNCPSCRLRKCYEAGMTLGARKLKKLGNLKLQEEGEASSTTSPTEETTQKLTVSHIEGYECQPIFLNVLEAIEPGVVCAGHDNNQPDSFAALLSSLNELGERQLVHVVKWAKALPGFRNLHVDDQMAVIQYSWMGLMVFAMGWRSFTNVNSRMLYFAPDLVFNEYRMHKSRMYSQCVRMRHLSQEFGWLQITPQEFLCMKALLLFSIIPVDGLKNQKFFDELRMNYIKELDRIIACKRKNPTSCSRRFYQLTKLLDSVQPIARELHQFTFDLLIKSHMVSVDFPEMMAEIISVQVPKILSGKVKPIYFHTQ
Briefly: Binding affinity to androgen receptor ([3H]methyltrienolone radioligand, cell cytosol). The note with it: Table 6. As to the method:
Fractions of cell cytosol ([…]) were incubated for 24 hr at 4° C. with 1 nM [^3H]methyltrienolone in the absence or presence of the test compound in a buffer containing 25 mM Hepes-Tris (pH 7.4), 1 mM EDTA, 10 mM Na2MoO4, 2 mM DTT, 5 μM triamcinolone acetonide, and 10% glycerol. Nonspecific binding was determined in the presence of 1 μM testosterone. Following incubation, the samples were filtered rapidly under vacuum through glass fiber filters (GF/B, Packard) presoaked with 0.3% PEI and rinsed several times with ice-cold 50 mM Tris-HCl using a 96-sample cell harvester (Unifilter, Packard). The filters were dried then counted for radioactivity in a scintillation counter (Topcount, Packard) using a scintillation cocktail (Microscint 0, Packard). The results are expressed as a percent inhibition of the control radioligand specific binding. The standard reference compound is testosterone, which is tested in each experiment at several concentrations to obtain a competition curve from which its IC50 is calculated.

In assay [1] the test system is T-Rex 293 cell line SC cells having increased expression of progesterone receptor isoform B protein. Put plainly: Cellular growth inhibition, T-Rex 293 SC cells with doxycycline (increased progesterone receptor isoform B expression). The assay is classed as cell-based. The note with it: with 10 ng/mL doxycycline (increased progesterone receptor isoform B), 72 hours, CellTiter-Glo 2.0. The method, then: (§1) The following types of cells were prepared for this experiment: (i) a T-Rex 293 cell line having increased expression of progesterone receptor isoform B protein due to exposure to doxycycline and (ii) a T-Rex 293 cell line lacking increased expression of progesterone receptor isoform B protein. Ability of the test compounds to inhibit proliferation of the foregoing cell types was evaluated according to the procedures set forth below.
(§2) The doxycycline-inducible progesterone receptor isoform B protein expressing cell line was established using the following protocol: T-Rex 293 cells were purchased from Invitrogen (Cat #R71007) and transfected using Lipofectamine 2000 with the wild-type progesterone receptor B protein sequence cloned into the pcDNA4/TO vector. Transfected cells were selected using 400 μg/mL Zeocin (Invitrogen Cat #R25001). Following selection, single clones were raised and maintained in Dulbecco's Modified Eagle Medium (DMEM) supplemented with 10% w/w Tetracycline-free fetal bovine serum (FBS) and 250 μg/mL Zeocin. Clones were analyzed for expression of progesterone receptor isoform B protein in the presence and absence of 10 ng/mL doxycycline (Sigma Cat #D9891), and a single doxycycline-inducible clone (hereinafter “SC”) was selected for use in downstream assays.
(§3) The SC cells were seeded on poly-D-lysine coated, black clear-bottom 384-well plates at 2500/well, in 25 μL Phenol Red Free Dulbecco's Modified Eagle Medium (DMEM) supplemented with 10% w/w charcoal-dextran treated fetal bovine serum (FBS) and 1% w/w pen-strep, with or without 10 ng/mL doxycycline. Pen-Strep is a commercially available mixture of penicillin G and streptomycin, which is used in mammalian cell culture media to prevent bacterial contamination. Phenol Red Free Dulbecco's Modified Eagle Medium (DMEM) supplemented with 10% w/w charcoal-dextran treated fetal bovine serum (FBS) and 1% w/w pen-strep, with or without 10 ng/mL doxycycline is herein referred to as Treatment Medium. Following seeding of cells in the plates, the plates were spun at 300×g for 30 seconds, then equilibrated to room temperature for 30 minutes, and then deposited in a humidified tissue culture incubator maintained at 37° C. with 5% CO2.
(§4) At 24 hours after seeding of the cells, dilutions of test compound were prepared in DMSO and dissolved in Treatment Medium, to achieve a final DMSO concentration of 0.5% w/w, thereby providing the Test Compound Solution. A 25 μL aliquot of the Test Compound Solution was added to cells in the well plates. An equal volume of a solution containing DMSO and Treatment Medium was used as a negative control. Following treatment of cells with Test Compound Solution or said equal volume of a solution containing DMSO and Treatment Medium, the plates were spun at 300×g for 30 seconds, and then left in an incubator for 72 hours.
(§5) At the end of the treatment duration, cell viability was quantified with CellTiter-Glo 2.0 reagent (Promega Cat #G9243). For this purpose, plates were equilibrated to room temperature for 30 minutes, and then 25 μL of CellTiter-Glo 2.0 reagent was added to cells in the plate wells. Plates were then agitated on a shaker for two minutes at 500 rpm and subsequently incubated at room temperature for 10 minutes. Following incubation, the plates were spun at 3000×g for 30 seconds, then sealed with an optical adhesive cover, and luminescence readings were measured with an EnVision Plate Reader (Perkin Elmer).
(§6) Data was normalized using zero luminescence for baseline. A four-parameter non-linear regression curve fit was applied to dose-response data in GraphPad Prism data analysis software to determine the half-maximal growth inhibitory concentration (GI50) for each test compound.
In general terms: ATP-based viability assays read luminescence as a measure of living cells.

Assay [2] deals with T-Rex 293 cell line SC cells lacking increased expression of progesterone receptor isoform B protein. Briefly: Cellular growth inhibition, T-Rex 293 SC cells without doxycycline. The note with it: not exposed to doxycycline, 72 hours, CellTiter-Glo 2.0. The assay is classed as cell-based. As to the method: as §1, §2, §3, §4, §5, §6

`CCc1cnn2c(NCc3ccc(=O)n(CCOCCOCCOCCOCCOCCOCCN(C)c4ncc(C(=O)N[C@H]5C(C)(C)[C@H](Oc6ccc(C#N)c(Cl)c6)C5(C)C)cn4)c3)cc(N3CCCC[C@H]3CCO)nc12` [Compound I-4, N-((1r,3r)-3-(3-chloro-4-cyanophenoxy)-2,2,4,4-tetramethylcyclobutyl)-2-((20-(5-(((3-ethyl-5-((S)-2-(2-hydroxyethyl)piperidin-1-yl)pyrazolo[1,5-a]pyrimidin-7-yl)amino)methyl)-2-oxopyridin-1(2H)-yl)-3,6,9,12,15,18-hexaoxaicosyl)(methyl)amino)pyrimidine-5-carboxamide]: at androgen receptor, the Kd (in general, a measure of binding affinity in units of concentration) was below 50 nM. Besides, the concentration for 50% growth inhibition (GI50) in assay [1] and in assay [2] was below 500 nM each time.

At androgen receptor, `CCc1cnn2c(NCc3ccc(OCCOCCOCCOCCOCCOCCOCCN(C)c4ncc(C(=O)N[C@H]5C(C)(C)[C@H](Oc6ccc(C#N)c(Cl)c6)C5(C)C)cn4)nc3)cc(N3CCCC[C@H]3CCO)nc12` [Compound I-5] returned a dissociation constant Kd below 50 nM. Besides, the GI50 (as a rule, the concentration that inhibits growth by half) is below 500 nM in assay [1] and 500 to 1500 nM in assay [2].

The molecule `CCc1cnn2c(NCc3ccc(OCCOC4CCN(c5ncc(C(=O)N[C@H]6C(C)(C)[C@H](Oc7ccc(C#N)c(Cl)c7)C6(C)C)cn5)CC4)nc3)cc(N3CCCC[C@H]3CCO)nc12` [Compound I-7, N-((1r,3r)-3-(3-chloro-4-cyanophenoxy)-2,2,4,4-tetramethylcyclobutyl)-2-(4-(2-((5-(((3-ethyl-5-((S)-2-(2-hydroxyethyl)piperidin-1-yl)pyrazolo[1,5-a]pyrimidin-7-yl)amino)methyl)pyridin-2-yl)oxy)ethoxy)piperidin-1-yl)pyrimidine-5-carboxamide] yielded a Kd on androgen receptor below 50 nM. For the same molecule, the GI50 in assay [1] and in assay [2] was below 500 nM throughout.

The molecule `CCc1cnn2c(NCc3ccc(OCCOCCOCCOC4CCN(c5ncc(C(=O)N[C@H]6C(C)(C)[C@H](Oc7ccc(C#N)c(Cl)c7)C6(C)C)cn5)CC4)nc3)cc(N3CCCC[C@H]3CCO)nc12` [Compound I-8] showed a Kd at androgen receptor below 50 nM. Moreover, the concentration for 50% growth inhibition (GI50) in assay [1] and in assay [2] was below 500 nM each time.

At androgen receptor, `CC1(C)[C@H](NC(=O)c2cnc(N3CCC(OCCNS(=O)(=O)c4ccc(Nc5ncc(Br)c(Nc6cccc(F)c6C(N)=O)n5)cc4)CC3)nc2)C(C)(C)[C@H]1Oc1ccc(C#N)c(Cl)c1` [Compound I-13, 2-(4-(2-((4-((5-bromo-4-((2-carbamoyl-3-fluorophenyl)amino)pyrimidin-2-yl)amino)phenyl)sulfonamido)ethoxy)piperidin-1-yl)-N-((1 r,3r)-3-(3-chloro-4-cyanophenoxy)-2,2,4,4-tetramethylcyclobutyl)pyrimidine-5-carboxamide] displayed a Kd below 50 nM. The GI50 in assay [1] and in assay [2] was above 3000 nM in each case.

`CCc1cnn2c(NCc3ccc(COCCN4CCN(CC5CCN(c6ncc(C(=O)N[C@H]7C(C)(C)[C@H](Oc8ccc(C#N)c(Cl)c8)C7(C)C)cn6)CC5)CC4)nc3)cc(N3CCCC[C@H]3CCO)nc12` [Compound I-42]: the Kd at androgen receptor was below 50 nM. Also, the GI50 in assay [1] and in assay [2] was below 500 nM in each case.

Consider `CCc1cnn2c(NCc3ccc(OCCOCCOCCOC4CCN(c5ccc(C(=O)N[C@H]6C(C)(C)[C@H](Oc7ccc(C#N)c(Cl)c7)C6(C)C)nn5)CC4)nc3)cc(N3CCCC[C@H]3CCO)nc12` [Compound I-44, N-((1r,3r)-3-(3-chloro-4-cyanophenoxy)-2,2,4,4-tetramethylcyclobutyl)-6-(4-(2-(2-(2-((5-(((3-ethyl-5-((S)-2-(2-hydroxyethyl)piperidin-1-yl)pyrazolo[1,5-a]pyrimidin-7-yl)amino)methyl)pyridin-2-yl)oxy)ethoxy)ethoxy)ethoxy)piperidin-1-yl)pyridazine-3-carboxamide], for which the Kd at androgen receptor was in the range of 50 to 500 nM. In addition, the 50% growth inhibitory concentration (GI50) in assay [1] and in assay [2] was below 500 nM each time.

For `Cc1ncc(-c2nc(Nc3ccc(C(=O)N4CC[C@H](N(C)CCOC5CCN(c6ncc(C(=O)N[C@H]7C(C)(C)[C@H](Oc8ccc(C#N)c(Cl)c8)C7(C)C)cn6)CC5)C4)cc3)ncc2F)n1C(C)C` [Compound I-95, N-[3-(3-chloro-4-cyano-phenoxy)-2,2,4,4-tetramethyl-cyclobutyl]-2-[4-[2-[[(3S)-1-[4-[[5-fluoro-4-(3-isopropyl-2-methyl-imidazol-4-yl)pyrimidin-2-yl]amino]benzoyl]pyrrolidin-3-yl]-methyl-amino]ethoxy]-1-piperidyl]pyrimidine-5-carboxamide], the GI50 in assay [1] and in assay [2] was below 500 nM in each case.

As to `Cc1ncc(-c2nc(Nc3ccc(C(=O)N4CC[C@H](N(C)CCOCCOCCOC5CCN(c6ncc(C(=O)N[C@H]7C(C)(C)[C@H](Oc8ccc(C#N)c(Cl)c8)C7(C)C)cn6)CC5)C4)cc3)ncc2F)n1C(C)C` [Compound I-96], the GI50 in assay [1] and in assay [2] was 1500 to 3000 nM throughout.

Regarding `Cc1ncc(-c2nc(Nc3ccc(C(=O)N4CC[C@H](N(C)CCOCCOCCOCCOCCOC5CCN(c6ncc(C(=O)N[C@H]7C(C)(C)[C@H](Oc8ccc(C#N)c(Cl)c8)C7(C)C)cn6)CC5)C4)cc3)ncc2F)n1C(C)C` [Compound I-97], the GI50 in assay [1] is 500 to 1500 nM; in assay [2] it was 1500 to 3000 nM.
